# Experimental data: paper PMC3407795 (EJNMMI Research, 2012)
# Where two headings read alike, the source gives them in different places.
# Key:
# [1] = Metabolism in blood (in vivo stability); parameters: species or system mouse; conditions: healthy male Swiss albino mice, blood collected 5 min after iv injection (3 nmol), RP-HPLC radioanalysis
# Description: The animals were kept for 5 min in cages with free access to water. They were sacrificed by cardiac puncture under ether anesthesia, and blood was withdrawn with a syringe and immediately placed in a pre-chilled EDTA-containing polypropylene vial on ice. Blood samples were centrifuged at 2,000 × g at 4 °C for 10 min.
# [2] = Biodistribution in healthy mice; assay type: in vivo; conditions: male, mouse, 10 pmol total peptide, total radioactivity, healthy Swiss albino mice, iv 10 pmol; for tissue uptake at 4 h: 4 h pi
# Description: In the in vivo receptor blockade animal group, excess Tate (50 nmol) was administered intravenously (iv) together with the radioligand. Animals were sacrificed in groups of four at 4- and 24-h time points post injection (pi). […] Tissue distribution data were calculated as percent injected dose per gram (%ID/g) applying a suitable algorithm.
# The in vivo data presented as mean %ID/g ± SD (n ≥ 4) were statistically analyzed with Student’s t test (Prism^TM 2.01, GraphPad Software, San Diego, CA, USA). Analyses were 2-tailed, and a P value < 0.05 was considered statistically significant.
structure (smiles),measurement,setting,value
"C[C@H](NC(=O)CN1CCN(CC(=O)O)CCN(CC(=O)O)CCN(CC(=O)O)CC1)C(=O)NCC(=O)N[C@H]1CSSC[C@@H](C(=O)O)NC(=O)[C@H](CO)NC(=O)[C@H]([C@@H](C)O)NC(=O)[C@H](Cc2ccccc2)NC(=O)[C@H]([C@@H](C)O)NC(=O)[C@H](CCCCN)NC(=O)[C@H](Cc2c[nH]c3ccccc23)NC(=O)[C@H](Cc2ccccc2)NC(=O)[C@H](Cc2ccccc2)NC(=O)[C@H](CC(N)=O)NC(=O)[C@H](CCCCN)NC1=O [[^111In]AT1S, metal not drawn]",intact radiopeptide detected in blood,[1],2%
same,tissue uptake at 4 h,"[2]; kidney, read-out: Kidney uptake",10.9 %ID/g
same,tissue uptake at 24 h,"[2]; kidney, 24 h pi",6.6 %ID/g
same,tissue uptake at 4 h,"[2]; pancreas, read-out: Pancreas uptake",< 0.5 %ID/g
